Entries after “also recorded” stand apart in the source; their conditions may differ.
Tests used:
H3N2 A/HongKong/8/68 = test: Electrochemical assay, 3 electrode system: SG1 cleavage and drug susceptibility; format: biochemical, Influenza A virus
[1] = tested on: N2 NA (strain A/Babol/36/2005); test: as above; format: biochemical, influenza virus
H3N2 A/Aichi/2/1968 = test: as above; format: biochemical, Influenza A virus
[2] = tested on: membrane free soluble N1 NA (strain H5N1 A/Anhui/1/2005); format: biochemical, influenza virus
H1N1 A/Brisbane/59/2007 = test: Electrochemical assay, 3 electrode system: SG1 cleavage and drug susceptibility; format: biochemical, Influenza A virus
[3] = tested on: A/Beijing/262/1995 (H1N1); test: Electrochemical assay using the printed electrodes; format: biochemical, Influenza A virus; conditions: 100 μL virus + 100 μL PBS buffer with SG1, 1 hour, 37° C.; 20 μL tested
A/HongKong/8/1968 (H3N2) = test: Electrochemical assay using the printed electrodes; format: biochemical, Influenza A virus; conditions: 100 μL virus + 100 μL PBS buffer with SG1, 1 hour, 37° C.; 20 μL tested
[4] = tested on: A/San Diego/1/2009 (H1N1); test: Electrochemical assay using the printed electrodes; format: biochemical, Influenza A virus; conditions: 100 μL virus + 100 μL PBS buffer with SG1, 1 hour, 37° C.; 20 μL tested
[5] = tested on: A/New York/18/2009 (H1N1); test: Electrochemical assay using the printed electrodes; format: biochemical, Influenza A virus; conditions: 100 μL virus + 100 μL PBS buffer with SG1, 1 hour, 37° C.; 20 μL tested
[6] = tested on: A/Nanching/933/1995 (H3N2); test: Electrochemical assay using the printed electrodes; format: biochemical, Influenza A virus; conditions: 100 μL virus + 100 μL PBS buffer with SG1, 1 hour, 37° C.; 20 μL tested
[7] = tested on: A/PuertoRico/8/1934 (H1N1); test: Electrochemical assay using the printed electrodes; format: biochemical, Influenza A virus; conditions: 100 μL virus + 100 μL PBS buffer with SG1, 1 hour, 37° C.; 20 μL tested
[8] = tested on: A/New Caledonia/20/1999 (H1N1); test: Electrochemical assay using the printed electrodes; format: biochemical, Influenza A virus
[9] = tested on: A/Wisconsin/629-D02452/2009 (H1N1); test: Electrochemical assay using the printed electrodes; format: biochemical, Influenza A virus; conditions: 100 μL virus + 100 μL PBS buffer with SG1, 1 hour, 37° C.; 20 μL tested
[10] = tested on: A/Brownsville/31H/2009 (H1N1); test: Electrochemical assay using the printed electrodes; format: biochemical, Influenza A virus; conditions: 100 μL virus + 100 μL PBS buffer with SG1, 1 hour, 37° C.; 20 μL tested
[11] = tested on: A/Wilson-Smith/1933 (H1N1); test: Electrochemical assay using the printed electrodes; format: biochemical, Influenza A virus; conditions: 100 μL virus + 100 μL PBS buffer with SG1, 1 hour, 37° C.; 20 μL tested
[12] = Electrochemical assay using the printed electrodes, SG1 without virus; conditions: No virus + SG1 (negative control)
[13] = tested on: A/Wisconsin/15/2009 (H3N2); test: Electrochemical assay using the printed electrodes; format: biochemical, Influenza A virus; conditions: 100 μL virus + 100 μL PBS buffer with SG1, 1 hour, 37° C.; 20 μL tested
[14] = tested on: A/Victoria/361/2011 (H3N2); test: Electrochemical assay using the printed electrodes; format: biochemical, Influenza A virus; conditions: 100 μL virus + 100 μL PBS buffer with SG1, 1 hour, 37° C.; 20 μL tested
A/Aichi/2/1968 (H1N1) = test: Electrochemical assay using the printed electrodes; format: biochemical, Influenza A virus
[15] = tested on: A/California/07/2009 (H1N1); test: Electrochemical assay using the printed electrodes; format: biochemical, Influenza A virus; conditions: 100 μL virus + 100 μL PBS buffer with SG1, 1 hour, 37° C.; 20 μL tested
[16] = Electrochemical assay, 3 electrode system: SG1 in PBS buffer without enzyme; conditions: SG1 0.5 mM in PBS buffer, no NA or virus
[17] = tested on: A/Solomon Islands/3/2006 (H1N1); test: Electrochemical assay using the printed electrodes; format: biochemical, Influenza A virus; conditions: 100 μL virus + 100 μL PBS buffer with SG1, 1 hour, 37° C.; 20 μL tested
A/Sydney/5/1997 (H3N2) = test: Electrochemical assay using the printed electrodes; format: biochemical, Influenza A virus; conditions: 100 μL virus + 100 μL PBS buffer with SG1, 1 hour, 37° C.; 20 μL tested
[18] = tested on: A/Uruguay/716/2007 (H3N2); test: Electrochemical assay using the printed electrodes; format: biochemical, Influenza A virus; conditions: 100 μL virus + 100 μL PBS buffer with SG1, 1 hour, 37° C.; 20 μL tested
[19] = tested on: A/Brisbane/59/2007 (H1N1); test: Electrochemical assay using the printed electrodes; format: biochemical, Influenza A virus; conditions: 100 μL virus + 100 μL PBS buffer with SG1, 1 hour, 37° C.; 20 μL tested
[20] = tested on: bacterial NA (BNA) from Clostridium perfringens; format: biochemical; conditions: bacterial NA, no antiviral
β-Galactosidase = conditions: substrate incubated with β-Galactosidase
α-Mannosidase = format: biochemical; conditions: substrate incubated with α-Mannosidase
β-Glucuronidase = conditions: substrate incubated with β-Glucuronidase
α-L-Fucosidase = format: biochemical; conditions: substrate incubated with α-L-Fucosidase
[21] = 10 ng antiviral premixed 30 min before SG1
[22] = 100 μL UV inactivated virus, 1 hour
[23] = 0.5 mM SG1, compared with one hour for most strains
[24] = 100 μL virus + 100 μL PBS buffer with SG1, 1 hour, 37° C., 20 μL tested
[25] = SG1 0.5 mM, 2 hours, 23° C., PBS buffer

CCOC(=O)C1=C[C@@H](OC(CC)CC)[C@H](NC(C)=O)[C@@H](N)C1 [Oseltamivir]
inhibition of NA (glucose release from SG1) by antiviral (H3N2 A/HongKong/8/68; [21]): completely inhibited; also recorded: Glucose was not released | inhibition of NA (glucose release from SG1) by antiviral [1, 21]: completely inhibited | inhibition of NA (glucose release from SG1) by antiviral (H3N2 A/Aichi/2/1968; [21]): completely inhibited; also recorded: Glucose was not released | inhibition of NA (glucose release from SG1) by antiviral [2, 21]: completely inhibited | inhibition of NA (glucose release from SG1) by antiviral (H1N1 A/Brisbane/59/2007; [21]): completely inhibited; also recorded: Glucose was not released

CC(=O)N[C@H]1[C@H]([C@H](O)[C@H](O)CO)O[C@@](OC[C@H]2OC(O)[C@H](O)[C@@H](O)[C@@H]2O)(C(=O)O)C[C@@H]1O (stereo partly drawn) [SG1, 5-acetamido-3,5-dideoxy-D-glycero-α-D-galacto-non-2-ulopyranosylonate-(2→6)-α,β-D-gluco pyranoside]
Electrochemical assay (current) [3]: 118.1 ± 11.6 ×10^−8 A | Electrochemical assay (current) (A/HongKong/8/1968 (H3N2)): 64.4 ± 5.2 ×10^−8 A | Electrochemical assay (current) [4]: 108.5 ± 12.0 ×10^−8 A | cleavage of SG1 / glucose release (H3N2 A/HongKong/8/68; [22]): cleave SG1, releasing glucose; also recorded: Glucose was released | Electrochemical assay (current) [5]: 74.4 ± 5.6 ×10^−8 A | Electrochemical assay (current) [6]: 15.1 + 2.8 ×10^−8 A | Electrochemical assay (current) [7]: 13.4 ± 2.0 ×10^−8 A | time to completely cleave SG1 [8, 23]: require longer time to completely cleave SG1 | Electrochemical assay (current) [8, 24]: 17.7 ± 2.6 ×10^−8 A | Electrochemical assay (current) [9]: 98.9 ± 5.7 ×10^−8 A | cleavage of SG1 / glucose release [1, 25]: complete cleavage; also recorded: Glucose was released | Electrochemical assay (current) [10]: 91.7 ± 9.7 ×10^−8 A | Electrochemical assay (current) [11]: 99.5 ± 4.4 ×10^−8 A | Electrochemical assay (current) [12]: 3.6 ± 2.2 ×10^−8 A | Electrochemical assay (current) [13]: 107.8 ± 5.9 ×10^−8 A | Electrochemical assay (current) [14]: 94.5 ± 2.3 ×10^−8 A | time to completely cleave SG1 (A/Aichi/2/1968 (H1N1); [23]): require longer time to completely cleave SG1 | Electrochemical assay (current) (A/Aichi/2/1968 (H1N1); [24]): 31.3 ± 5.3 ×10^−8 A | Electrochemical assay (current) [15]: 13.4 + 1.5 ×10^−8 A | cleavage of SG1 / glucose release (H3N2 A/Aichi/2/1968; [22]): cleave SG1, releasing glucose; also recorded: Glucose was released | glucose release in the absence of enzymes [16]: no glucose released | cleavage of SG1 / glucose release [2, 25]: complete cleavage; also recorded: Glucose was released | Electrochemical assay (current) [17]: 79.7 ± 5.0 ×10^−8 A | Electrochemical assay (current) (A/Sydney/5/1997 (H3N2)): 115.7 ± 4.3 ×10^−8 A | Electrochemical assay (current) [18]: 132.4 ± 6.3 ×10^−8 A | matrix effect on cleavage of SG1 (H1N1 A/Brisbane/59/2007): does not affect the cleavage | cleavage of SG1 / glucose release (H1N1 A/Brisbane/59/2007; [22]): cleave SG1, releasing glucose; also recorded: Glucose was released | Electrochemical assay (current) [19]: 106.2 ± 5.1 ×10^−8 A | cleavage of SG1 / glucose release [20]: cleaves SG1 to release glucose

OCC1O[C@@H](OCc2ccc(O[C@H]3OC(CO)[C@@H](O)[C@H](O)C3O)cc2)C(O)[C@@H](O)[C@@H]1O (some centres unmarked) [Substrate 20]
i, value of electrochemical assay (β-Galactosidase): 10.2 ± 0.6 10^−8 A | i, value of electrochemical assay (α-Mannosidase): 81.0 ± 1.8 10^−8 A

OCC1O[C@@H](OCc2ccc(O[C@@H]3OC(CO)[C@H](O)[C@H](O)C3O)cc2)C(O)[C@@H](O)[C@@H]1O (some centres unmarked) [Substrate 21]
i, value of electrochemical assay (β-Galactosidase): 77.9 ± 7.3 10^−8 A | i, value of electrochemical assay (β-Glucuronidase): 10.4 ± 1.3 10^−8 A

O=C(O)C1O[C@@H](Oc2ccc(CO[C@@H]3OC(CO)[C@@H](O)[C@H](O)C3O)cc2)C(O)[C@@H](O)[C@@H]1O (stereo partly drawn) [Substrate 22, 1-(4-Hydroxymethylphenyl)-β-D-glucopyronuronic acid-1-α/β-D-glucopyranoside]
i, value of electrochemical assay (α-L-Fucosidase): 9.7 ± 3.5 10^−8 A | i, value of electrochemical assay (β-Glucuronidase): 65.1 ± 4.6 10^−8 A | i, value of electrochemical assay (α-Mannosidase): 12.3 ± 1.2 10^−8 A
